Data taken from the NIST ThermoML archive (doi:10.1016/j.fluid.2007.04.023).

Conditions: Liquid, Vibrating tube method

CCCCCCCCCCCC [dodecane]
Conditions	mass density [kg/m3]
313.09 K, 1022 kPa	735.79
313.09 K, 2023 kPa	736.6
313.09 K, 3017 kPa	737.36
313.09 K, 4026 kPa	738.14
313.09 K, 5023 kPa	738.89
313.09 K, 6032 kPa	739.66
313.09 K, 7011 kPa	740.38
313.09 K, 8009 kPa	741.15
313.09 K, 9026 kPa	741.91
313.09 K, 10008 kPa	742.66
313.09 K, 11022 kPa	743.39
313.09 K, 12012 kPa	744.09
313.09 K, 13019 kPa	744.82
313.09 K, 14017 kPa	745.55
313.09 K, 15025 kPa	746.22
313.09 K, 16025 kPa	746.91
313.09 K, 17015 kPa	747.58
313.09 K, 18022 kPa	748.26
313.09 K, 19025 kPa	748.93
313.09 K, 20013 kPa	749.59
313.09 K, 21015 kPa	750.23
313.09 K, 22011 kPa	750.9
313.09 K, 23021 kPa	751.53
313.09 K, 24015 kPa	752.21
313.09 K, 24354 kPa	752.42
322.97 K, 1025 kPa	728.33
322.97 K, 2028 kPa	729.17
322.97 K, 3026 kPa	729.97
322.97 K, 4034 kPa	730.78
322.97 K, 5021 kPa	731.59
322.97 K, 6017 kPa	732.37
322.97 K, 7017 kPa	733.17
322.97 K, 8041 kPa	733.99
322.97 K, 9015 kPa	734.73
322.97 K, 10016 kPa	735.5
322.97 K, 11019 kPa	736.28
322.97 K, 12011 kPa	737.01
322.97 K, 13028 kPa	737.78
322.97 K, 14041 kPa	738.53
322.97 K, 14994 kPa	739.22
322.97 K, 16027 kPa	739.96
322.97 K, 17001 kPa	740.64
322.97 K, 18015 kPa	741.35
322.97 K, 19032 kPa	742.07
322.97 K, 20004 kPa	742.74
322.97 K, 21009 kPa	743.43
322.97 K, 22023 kPa	744.14
322.97 K, 23009 kPa	744.8
322.97 K, 24013 kPa	745.5
322.97 K, 24507 kPa	745.83
332.8 K, 1023 kPa	721.08
332.8 K, 2019 kPa	721.96
332.8 K, 3022 kPa	722.81
332.8 K, 4030 kPa	723.69
332.8 K, 5026 kPa	724.53
332.8 K, 6035 kPa	725.36
332.8 K, 7014 kPa	726.16
332.8 K, 8025 kPa	727.03
332.8 K, 9017 kPa	727.84
332.8 K, 10020 kPa	728.67
332.8 K, 11023 kPa	729.46
332.8 K, 12022 kPa	730.26
332.8 K, 13004 kPa	731.04
332.8 K, 14008 kPa	731.81
332.8 K, 15018 kPa	732.57
332.8 K, 16023 kPa	733.35
332.8 K, 17014 kPa	734.08
332.8 K, 18006 kPa	734.82
332.8 K, 19024 kPa	735.59
332.8 K, 20023 kPa	736.32
332.8 K, 21009 kPa	737.01
332.8 K, 22009 kPa	737.73
332.8 K, 23018 kPa	738.45
332.8 K, 24018 kPa	739.17
332.8 K, 24665 kPa	739.63
342.69 K, 1019 kPa	713.8
342.69 K, 2025 kPa	714.75
342.69 K, 3025 kPa	715.67
342.69 K, 4014 kPa	716.58
342.69 K, 5015 kPa	717.47
342.69 K, 6017 kPa	718.36
342.69 K, 7021 kPa	719.25
342.69 K, 8007 kPa	720.13
342.69 K, 9019 kPa	721.03
342.69 K, 10018 kPa	721.86
342.69 K, 11016 kPa	722.71
342.69 K, 12013 kPa	723.56
342.69 K, 13021 kPa	724.39
342.69 K, 14020 kPa	725.21
342.69 K, 15030 kPa	726.04
342.69 K, 16024 kPa	726.83
342.69 K, 17011 kPa	727.58
342.69 K, 18025 kPa	728.36
342.69 K, 19023 kPa	729.15
342.69 K, 20013 kPa	729.88
342.69 K, 21006 kPa	730.67
342.69 K, 22021 kPa	731.41
342.69 K, 23014 kPa	732.15
342.69 K, 24013 kPa	732.89
342.69 K, 24725 kPa	733.44
352.51 K, 1021 kPa	706.54
352.51 K, 2027 kPa	707.55
352.51 K, 3013 kPa	708.48
352.51 K, 4019 kPa	709.46
352.51 K, 5027 kPa	710.45
352.51 K, 6014 kPa	711.35
352.51 K, 7020 kPa	712.33
352.51 K, 8000 kPa	713.23
352.51 K, 9024 kPa	714.18
352.51 K, 10009 kPa	715.07
352.51 K, 11022 kPa	715.96
352.51 K, 12012 kPa	716.84
352.51 K, 13026 kPa	717.71
352.51 K, 14017 kPa	718.6
352.51 K, 15021 kPa	719.45
352.51 K, 16022 kPa	720.3
352.51 K, 17012 kPa	721.08
352.51 K, 18027 kPa	721.95
352.51 K, 19013 kPa	722.74
352.51 K, 20028 kPa	723.53
352.51 K, 21021 kPa	724.33
352.51 K, 22023 kPa	725.14
352.51 K, 23008 kPa	725.88
352.51 K, 24020 kPa	726.65
352.51 K, 24813 kPa	727.31
362.29 K, 1015 kPa	699.21
362.29 K, 2020 kPa	700.31
362.29 K, 3015 kPa	701.33
362.29 K, 4012 kPa	702.34
362.29 K, 5029 kPa	703.4
362.29 K, 6009 kPa	704.36
362.29 K, 7029 kPa	705.38
362.29 K, 8013 kPa	706.3
362.29 K, 9012 kPa	707.31
362.29 K, 10038 kPa	708.31
362.29 K, 11027 kPa	709.22
362.29 K, 12009 kPa	710.09
362.29 K, 13007 kPa	711.04
362.29 K, 14015 kPa	711.96
362.29 K, 15008 kPa	712.81
362.29 K, 16034 kPa	713.71
362.29 K, 17030 kPa	714.59
362.29 K, 18011 kPa	715.43
362.29 K, 19021 kPa	716.29
362.29 K, 20007 kPa	717.15
362.29 K, 21017 kPa	717.94
362.29 K, 22032 kPa	718.77
362.29 K, 23002 kPa	719.6
362.29 K, 24005 kPa	720.38
362.29 K, 24809 kPa	721.05
